Laboratory results reported in patent US11028075B2, “Therapeutic compounds and methods of use thereof” (GENENTECH, INC., priority 2018, dated 2021).
Counter-ions that a name gives are not always drawn.

How the values were obtained:
hNav1.7 [1] = molecular target: T1, hNav1.7 (Homo sapiens (Human), UniProt Q15858); assay: Tritiated compound binding to membranes from cells heterologously expressing hNav1.7 and the β1 subunit (Nav1.7 LBA); settings: competitive binding vs [3H]compound, membranes with hNav1.7 and β1 subunit; read-out: Nav1.7 LBA EVO IC50
Procedure: Example 93A. Tritiated Compound Binding to Membranes Isolated from Cells that Heterologously Express hNav1.7 and the β1 Subunit
Preparation of membranes containing recombinantly expressed sodium channels: Frozen recombinant cell pellets are thawed on ice and diluted to 4 times the cell pellet weight with ice cold 50 mM Tris HCl, pH 7.4 buffer. The cell suspensions are homogenized on ice using a motorized glass dounce homogeniser. Homogenates are further diluted 8.4 times with ice cold 50 mM Tris HCl, pH 7.4 buffer and then centrifuged at 200×g at 4° C. for 15 minutes. The supernatants are collected and centrifuged at 10000×g at 4° C. for 50 min. The pellets are then re-suspended in 100 mM NaCl, 20 mM Tris HCl, pH 7.4 buffer containing 1% v/v protease inhibitors (Calbiochem) and re-homogenized on ice. The homogenized membranes are then processed through a syringe equipped with a 26 gauge needle. Protein concentrations arer determined by Bradford Assay and the membranes are stored at −80° C.
Saturation experiments. A competitive NaV1.7 inhibitor having a methyl group is tritiated. Three tritiums are incorporated in place of methyl hydrogens to generate [^3H]compound. Binding of this radioligand is performed in 5 mL borosilicate glass test tubes at room temperature. Binding is initiated by adding membranes to increasing concentrations of [^3H]compound in 100 mM NaCl, 20 mM Tris HCl, pH 7.4 buffer containing 0.01% w/v bovine serum albumin (BSA) for 18 h. Non-specific binding is determined in the presence of 1 μM unlabeled compound. After 18 h, the reactants are filtered through GF/C glass fiber filters presoaked in 0.5% w/v polyethylene imine. Filters are washed with 15 mL ice cold 100 mM NaCl, 20 mM Tris HCl, pH7.4 buffer containing 0.25% BSA to separate bound from free ligand. [^3H]compound bound to filters is quantified by liquid scintillation counting.
Binding reactions are performed in 96-well polypropylene plates at room temperature for 18 h. In 360 μL, membranes are incubated with […] [^3H]compound and increasing concentrations of Test Compound. Non-specific binding is defined in the presence of 1 μM unlabeled compound. Reactions are transferred and filtered through 96-well glass fiber/C filter plates presoaked with 0.5% polyethylene imine. The filtered reactions are washed 5 times with 200 μL ice cold buffer containing 0.25% BSA. Bound radioactivity is determined by liquid scintillation counting.
Data Analysis: For saturation experiments, non-specific binding is subtracted from total binding to provide specific binding and these values are recalculated in terms of pmol ligand bound per mg protein. Saturation curves are constructed and dissociation constants are calculated using the single site ligand binding model: Beq=(Bmax*X)/(X+Kd), where Beq is the amount of ligand bound at equilibrium, Bmax is the maximum receptor density, Kd is the dissociation constant for the ligand, and X is the free ligand concentration. For competition studies percent inhibition is determined and IC50 values are calculated using a 4 parameter logistic model (% inhibition=(A+((B−A)/(1+((x/C)^D)))) using XLfit, where A and B are the maximal and minimum inhibition respectively, C is the IC50 concentration and D is the (Hill) slope.
Example 93B. Tritiated Compound Binding to Membranes Isolated from Cells that Heterologous Express hNav1.7 and the β1 Subunit
Following the procedure described in Example 93A, and making modifications as required to: centrifuge supernatants at 100000×g instead of 10000×g; re-suspend pellets in a buffer containing 0.01% BSA in addition to 100 mM NaCl, 20 mM Tris HCl, pH 7.4 buffer, and 1% v/v proteasome inhibitors; and storing membranes at −80° C. in single use aliquots instead of pooled. […]
Target sequence in this assay (Q15858 whole entry, looked up): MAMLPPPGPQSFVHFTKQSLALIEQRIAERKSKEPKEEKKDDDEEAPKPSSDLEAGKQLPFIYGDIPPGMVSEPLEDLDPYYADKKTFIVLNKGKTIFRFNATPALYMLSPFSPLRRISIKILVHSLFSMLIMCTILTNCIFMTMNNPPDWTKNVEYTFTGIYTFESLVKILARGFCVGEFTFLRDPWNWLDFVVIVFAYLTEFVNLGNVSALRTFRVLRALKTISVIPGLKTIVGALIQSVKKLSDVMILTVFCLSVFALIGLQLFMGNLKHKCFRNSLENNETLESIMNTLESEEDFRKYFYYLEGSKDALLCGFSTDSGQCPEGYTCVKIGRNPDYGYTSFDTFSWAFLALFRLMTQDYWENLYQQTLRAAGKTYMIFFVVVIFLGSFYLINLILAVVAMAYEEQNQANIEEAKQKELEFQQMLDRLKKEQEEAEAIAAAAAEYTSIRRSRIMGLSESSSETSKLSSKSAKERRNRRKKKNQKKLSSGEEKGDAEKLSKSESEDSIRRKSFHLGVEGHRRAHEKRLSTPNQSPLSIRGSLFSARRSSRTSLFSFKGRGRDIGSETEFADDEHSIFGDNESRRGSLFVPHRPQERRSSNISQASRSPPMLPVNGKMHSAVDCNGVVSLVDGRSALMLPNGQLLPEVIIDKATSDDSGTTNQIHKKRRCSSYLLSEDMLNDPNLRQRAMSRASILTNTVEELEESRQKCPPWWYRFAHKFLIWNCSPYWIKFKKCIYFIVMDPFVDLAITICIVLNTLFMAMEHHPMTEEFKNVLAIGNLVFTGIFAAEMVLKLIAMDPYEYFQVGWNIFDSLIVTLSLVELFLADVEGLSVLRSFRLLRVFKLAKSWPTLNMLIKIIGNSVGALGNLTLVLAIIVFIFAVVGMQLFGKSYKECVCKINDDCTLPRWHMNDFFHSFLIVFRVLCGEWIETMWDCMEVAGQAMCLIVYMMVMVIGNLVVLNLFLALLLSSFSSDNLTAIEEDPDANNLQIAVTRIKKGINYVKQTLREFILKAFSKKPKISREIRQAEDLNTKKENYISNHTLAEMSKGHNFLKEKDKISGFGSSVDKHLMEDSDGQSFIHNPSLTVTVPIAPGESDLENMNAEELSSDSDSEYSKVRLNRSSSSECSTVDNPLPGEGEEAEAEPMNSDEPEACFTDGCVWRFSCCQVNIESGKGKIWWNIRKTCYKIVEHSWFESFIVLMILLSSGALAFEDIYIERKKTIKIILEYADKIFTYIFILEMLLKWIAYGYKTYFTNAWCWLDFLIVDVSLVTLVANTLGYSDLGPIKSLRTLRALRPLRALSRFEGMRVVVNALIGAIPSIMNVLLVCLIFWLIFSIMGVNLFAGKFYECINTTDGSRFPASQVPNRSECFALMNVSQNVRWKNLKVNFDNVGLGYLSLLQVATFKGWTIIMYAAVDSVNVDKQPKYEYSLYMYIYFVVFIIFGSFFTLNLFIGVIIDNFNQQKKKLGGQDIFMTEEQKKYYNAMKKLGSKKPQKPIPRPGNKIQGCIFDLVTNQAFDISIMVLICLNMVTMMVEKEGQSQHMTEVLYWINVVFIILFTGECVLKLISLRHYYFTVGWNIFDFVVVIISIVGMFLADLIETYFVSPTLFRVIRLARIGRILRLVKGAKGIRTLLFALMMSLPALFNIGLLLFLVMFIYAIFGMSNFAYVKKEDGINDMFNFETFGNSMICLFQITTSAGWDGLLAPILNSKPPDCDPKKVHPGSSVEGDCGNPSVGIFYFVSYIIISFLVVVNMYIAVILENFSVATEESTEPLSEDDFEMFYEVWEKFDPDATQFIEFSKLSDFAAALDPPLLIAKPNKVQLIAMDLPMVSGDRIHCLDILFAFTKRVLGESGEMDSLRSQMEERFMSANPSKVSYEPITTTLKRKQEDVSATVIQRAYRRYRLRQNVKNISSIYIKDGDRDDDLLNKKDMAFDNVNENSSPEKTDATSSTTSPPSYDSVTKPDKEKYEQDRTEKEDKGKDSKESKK
Target sequence in this assay (Q07699 whole entry partner, looked up): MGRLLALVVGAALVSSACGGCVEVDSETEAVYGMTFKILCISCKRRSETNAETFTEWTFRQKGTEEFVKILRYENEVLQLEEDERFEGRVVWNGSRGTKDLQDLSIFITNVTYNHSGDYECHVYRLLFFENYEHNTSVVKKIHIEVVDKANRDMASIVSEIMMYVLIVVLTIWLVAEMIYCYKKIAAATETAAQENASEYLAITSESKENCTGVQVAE

hNav1.7 [2] = molecular target: T1, hNav1.7; assay: Electrophysiological assay (EP), voltage clamp on Syncropatch 384PE, CHO cells stably expressing Nav1.7; format: cell-based; settings: holding potential −50 mV, 7.5 min compound incubation, read-out: EP_SP hNav1.7 EVO IC50
From the text: Example 93C. Electrophysiological Assay (EP) (In Vitro Assay)
Patch voltage clamp electrophysiology allows for the direct measurement and quantification of block of voltage-gated sodium channels (NaV's), and allows the determination of the time- and voltage-dependence of block which has been interpreted as differential binding to the resting, open, and inactivated states of the sodium channel (Hille, B., Journal of General Physiology (1977), 69: 497-515).
The following voltage clamp electrophysiology studies are performed on representative compounds using cells heterologously expressing Nav1.7 or Nav1.5 channels. cDNAsfor Nav1.7 (NM_002977) and Nav1.5 (AC137587) are stably expressed in Chinese Hamstr Ovary (CHO) cells and CHL (Chinese Hamster Lung) cells respectively. Sodium currents are measured in the whole-cell configuration using Syncropatch 384PE (Nanlon Technologies, Germany). 1NPC®-384 chips with custom medium resistance and single hole mode are used. Internal solution consists of (in mM): […], 10 […], 20 EGTA, and 10 Hepes (pH adjusted to 7.2); and external solution contains (in mM): 60 NMDG, 80 NaCl, 4 KCl, 1 MgCl2, 2 CaCl2, 2 D-Glucose monohydrate, 10 Hepes (pH adjusted to 7.4 with NaOH).
After system flushing, testing compounds are dissolved in external solution containing 0.1% Pluronic F-127. The chip is moved into the measuring head and the instrument primes the chip with external and internal solutions. 10 μl cells are added to the chip from a cell hotel, and a negative pressure of −50 mBar is applied to form a seal. Following treatment with seal enhancer solution and wash-off with external solution, negative pressure of −250 mbar is applied for 1 second to achieve the whole-cell configuration, followed by three washing steps in external solution. 20 μl of compounds is added to 40 μl in each well (1:3 dilution of compounds), and after mixing, 20 μl is removed so the volume is retained at 40 μl. After approximately 13 minutes recordings, 20 μl/well of 2 uM TTX, or 333 uM Tetracaine (for Nav1.5) is added to achieve full block.
For voltage protocol, an holding potential of −50 mV is applied during the whole experiment. A depolarizing step is applied to −10 mV for 10 ms, followed by a hyperpolarization step to −150 mV for 20 ms to allow channel recovery from inactivation. A second depolarizing step is applied from −150 mV to −10 mV for 10 ms, where currents are measured to derive blocking effects of compounds. Inhibition is determined based on 7.5 min of compound incubation.
Target sequence in this assay (Q15858 other isoform, or with tags, fused parts or gaps): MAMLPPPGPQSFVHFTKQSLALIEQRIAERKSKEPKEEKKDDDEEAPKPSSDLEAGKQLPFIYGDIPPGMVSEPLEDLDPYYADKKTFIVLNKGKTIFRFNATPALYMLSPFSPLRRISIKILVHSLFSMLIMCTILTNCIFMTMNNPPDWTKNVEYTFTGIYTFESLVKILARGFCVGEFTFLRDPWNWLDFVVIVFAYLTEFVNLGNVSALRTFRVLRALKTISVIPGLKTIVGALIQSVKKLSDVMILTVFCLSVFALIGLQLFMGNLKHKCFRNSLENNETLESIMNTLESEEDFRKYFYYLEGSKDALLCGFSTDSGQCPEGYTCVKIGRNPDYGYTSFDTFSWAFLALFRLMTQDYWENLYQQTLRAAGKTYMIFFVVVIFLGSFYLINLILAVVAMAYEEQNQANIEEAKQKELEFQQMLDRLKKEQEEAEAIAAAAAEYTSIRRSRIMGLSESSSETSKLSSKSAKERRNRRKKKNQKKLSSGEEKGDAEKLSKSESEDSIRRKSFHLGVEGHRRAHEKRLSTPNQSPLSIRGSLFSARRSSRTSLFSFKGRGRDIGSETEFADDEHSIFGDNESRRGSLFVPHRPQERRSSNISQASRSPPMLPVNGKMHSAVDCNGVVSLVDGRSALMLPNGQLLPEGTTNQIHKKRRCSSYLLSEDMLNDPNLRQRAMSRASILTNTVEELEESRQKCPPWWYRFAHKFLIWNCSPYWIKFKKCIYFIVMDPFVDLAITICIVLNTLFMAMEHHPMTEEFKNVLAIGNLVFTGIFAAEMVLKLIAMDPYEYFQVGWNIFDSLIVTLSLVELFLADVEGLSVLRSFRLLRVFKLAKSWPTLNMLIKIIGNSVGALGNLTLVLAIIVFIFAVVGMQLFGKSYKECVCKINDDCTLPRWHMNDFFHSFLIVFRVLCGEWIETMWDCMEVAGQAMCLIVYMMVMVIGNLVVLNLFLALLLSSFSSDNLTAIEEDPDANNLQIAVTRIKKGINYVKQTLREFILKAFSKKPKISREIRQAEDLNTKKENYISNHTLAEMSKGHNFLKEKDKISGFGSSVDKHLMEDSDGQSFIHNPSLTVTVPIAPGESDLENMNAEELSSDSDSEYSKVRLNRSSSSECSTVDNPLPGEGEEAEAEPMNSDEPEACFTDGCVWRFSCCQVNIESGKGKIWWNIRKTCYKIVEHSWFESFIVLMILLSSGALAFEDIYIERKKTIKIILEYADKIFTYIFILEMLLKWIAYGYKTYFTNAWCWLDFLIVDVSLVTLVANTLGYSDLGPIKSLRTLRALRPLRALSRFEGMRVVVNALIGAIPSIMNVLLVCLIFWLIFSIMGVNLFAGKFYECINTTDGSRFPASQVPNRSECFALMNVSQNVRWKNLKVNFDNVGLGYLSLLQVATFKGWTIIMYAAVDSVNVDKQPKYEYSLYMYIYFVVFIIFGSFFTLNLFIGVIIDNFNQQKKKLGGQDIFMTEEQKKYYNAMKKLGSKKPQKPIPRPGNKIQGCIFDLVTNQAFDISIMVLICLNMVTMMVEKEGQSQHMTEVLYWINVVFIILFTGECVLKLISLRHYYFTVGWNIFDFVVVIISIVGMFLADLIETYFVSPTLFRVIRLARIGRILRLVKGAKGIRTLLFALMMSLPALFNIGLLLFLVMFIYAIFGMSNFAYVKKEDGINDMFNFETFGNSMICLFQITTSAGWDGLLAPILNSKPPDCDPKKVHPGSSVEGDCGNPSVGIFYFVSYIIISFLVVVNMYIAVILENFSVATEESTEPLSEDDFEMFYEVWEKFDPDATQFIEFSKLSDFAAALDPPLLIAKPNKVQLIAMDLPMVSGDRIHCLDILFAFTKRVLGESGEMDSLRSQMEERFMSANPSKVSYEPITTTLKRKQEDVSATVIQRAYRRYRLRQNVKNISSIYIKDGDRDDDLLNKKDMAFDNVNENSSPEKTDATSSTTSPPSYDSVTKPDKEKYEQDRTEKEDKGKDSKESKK

Row | Compound | IC50 (hNav1.7 [1]) | IC50 (hNav1.7 [2])
1 | O=CO.[2H]C([2H])([2H])N([C@H]1C[C@@H](c2cccc(C(F)(F)F)c2)CC[C@@H]1Nc1cc(F)c(S(=O)(=O)Nc2ccncn2)cc1Cl)C([2H])([2H])[2H] [Example 9, 4-[[(1S,2S,4S)-2-[bis(trideuteriomethyl)amino]-4-[3-(trifluoromethyl)phenyl]-cyclohexyl]amino]-5-chloro-2-fluoro-N-pyrimidin-4-yl-benzenesulfonamide formate] | 0.681 nM | 0.694 nM
2 | CN(C)[C@H]1C[C@@H](c2cccc(C(F)(F)F)c2)CC[C@@H]1n1ccc2cc(S(=O)(=O)Nc3ccncn3)c(F)cc21 [Example 10, 1-((1S,2S,4S)-2-(Dimethylamino)-4-(3-(trifluoromethyl)phenyl)cyclohexyl)-6-fluoro-N-(pyrimidin-4-yl)-1H-indole-5-sulfonamide formate] | 25.8 nM | 2.74 nM
3 | Cc1cccc([C@H]2CC[C@H](Nc3cc(F)c(S(=O)(=O)Nc4ccncn4)cc3Cl)[C@@H](N(C)C)C2)c1 [Example 11, 5-Chloro-4-(((1S,2S,4S)-2-(dimethylamino)-4-(m-tolyl)cyclohexyl)amino)-2-fluoro-N-(pyrimidin-4-yl)benzenesulfonamide formate] | 7.57 nM | 1.64 nM
4 | CN(C)[C@H]1C[C@@H](c2cc(C(F)(F)F)cc(C(F)(F)F)c2)CC[C@@H]1Nc1cc(F)c(S(=O)(=O)Nc2ccncn2)cc1Cl [Example 12, 4-(((1S,2S,4S)-4-(3,5-bis(trifluoromethyl)phenyl)-2-(dimethylamino)cyclohexyl)amino)-5-chloro-2-fluoro-N-(pyrimidin-4-yl)benzenesulfonamide] | 0.473 nM | 0.531 nM
5 | CN(C)[C@H]1C[C@@H](c2cc(C(F)(F)F)cc(C(F)(F)F)c2)CC[C@@H]1Nc1cc(F)c(S(=O)(=O)Nc2ccncn2)cc1F [Example 13, 4-(((1S,2S,4S)-4-(3,5-bis(trifluoromethyl)phenyl)-2-(dimethylamino)cyclohexyl)amino)-2,5-difluoro-N-(pyrimidin-4-yl)benzenesulfonamide] | 1.36 nM | 0.652 nM
6 | CN(C)[C@H]1C[C@@H](c2cccc(OC(F)F)c2)CC[C@@H]1Nc1cc(F)c(S(=O)(=O)Nc2ccncn2)cc1Cl [Example 14, 5-Chloro-4-[[(1S,2S,4S)-4-[3-(difluoromethoxy)phenyl]-2-(dimethylamino)-cyclohexyl]amino]-2-fluoro-N-pyrimidin-4-yl-benzenesulfonamide] | 4.64 nM | 1.63 nM
7 | CN(C)[C@H]1C[C@@H](c2cc(F)cc(C(F)(F)F)c2)CC[C@@H]1Nc1cc(F)c(S(=O)(=O)Nc2ccncn2)cc1Cl [Example 15, 5-Chloro-4-[[(1S,2S,4S)-2-(dimethylamino)-4-[3-fluoro-5-(trifluoromethyl)phenyl]-cyclohexyl]amino]-2-fluoro-N-pyrimidin-4-yl-benzenesulfonamide formic acid] | 0.886 nM | 0.61 nM
8 | CN(C)[C@H]1C[C@@H](c2cccc(C(F)(F)F)c2F)CC[C@@H]1Nc1cc(F)c(S(=O)(=O)Nc2ccncn2)cc1Cl [Example 16, 5-chloro-4-(((1S,2S,4S)-2-(dimethylamino)-4-(2-fluoro-3-(trifluoromethyl)phenyl)-cyclohexyl)-amino)-2-fluoro-N-(pyrimidin-4-yl)benzenesulfonamide] | 1.2 nM | 0.923 nM
9 | CN(C)[C@H]1C[C@@H](c2cc(C(F)(F)F)ccc2F)CC[C@@H]1Nc1cc(F)c(S(=O)(=O)Nc2ccncn2)cc1Cl [Example 17, 5-chloro-4-(((1S,2S,4S)-2-(dimethylamino)-4-(2-fluoro-5-(trifluoromethyl)phenyl)cyclohexyl)-amino)-2-fluoro-N-(pyrimidin-4-yl)benzenesulfonamide] | 1.03 nM | 1.55 nM
10 | CN(C)[C@H]1C[C@@H](c2cccc(C3(C(F)(F)F)CC3)c2)CC[C@@H]1Nc1cc(F)c(S(=O)(=O)Nc2ccncn2)cc1Cl [Example 18, 5-chloro-4-(((1S,2S,4S)-2-(dimethylamino)-4-(3-(1-(trifluoromethyl)cyclopropyl)phenyl)-cyclohexyl)amino)-2-fluoro-N-(pyrimidin-4-yl)benzenesulfonamide] | 0.67 nM | 0.263 nM
11 | CN(C)[C@H]1C[C@@H](c2cccc(OC(F)(F)F)c2)CC[C@@H]1Nc1cc(F)c(S(=O)(=O)Nc2ccncn2)cc1F [Example 19, 4-(((1S,2S,4S)-2-(dimethylamino)-4-(3-(trifluoromethoxy)phenyl)cyclohexyl)amino)-2,5-difluoro-N-(pyrimidin-4-yl)benzenesulfonamide] | 1.36 nM | 0.673 nM
12 | CN(C)[C@H]1C[C@@H](c2cccc(-n3cccn3)c2)CC[C@@H]1Nc1cc(F)c(S(=O)(=O)Nc2ccncn2)cc1Cl [Example 20, 4-(((1S,2S,4S)-4-(3-(1H-pyrazol-1-yl)phenyl)-2-(dimethylamino)cyclohexyl)amino)-5-chloro-2-fluoro-N-(pyrimidin-4-yl)benzenesulfonamide formate] | 9.43 nM | 7.38 nM
13 | CN(C)[C@H]1C[C@@H](c2cccc(-c3ccnn3C)c2)CC[C@@H]1Nc1cc(F)c(S(=O)(=O)Nc2ccncn2)cc1Cl [Example 21, 5-Chloro-4-(((1S,2S,4S)-2-(dimethylamino)-4-(3-(1-methyl-1H-pyrazol-5-yl)phenyl)-cyclohexyl)amino)-2-fluoro-N-(pyrimidin-4-yl)benzenesulfonamide] | 12.9 nM | 8.03 nM
14 | CN(C)[C@H]1C[C@@H](c2cccc(-c3cnn(C)c3)c2)CC[C@@H]1Nc1cc(F)c(S(=O)(=O)Nc2ccncn2)cc1Cl [Example 22] | 21.2 nM | 19.4 nM
